{"source": "patent US8952024B2", "about": "“Herbicidal pyrimidone derivatives” (E I du Pont de Nemours and Company, priority 2009, dated 2015)", "assay_in_all_cases": "Test B pre-/postemergence plant response", "type_in_all_cases": "in vivo", "key": {"[1]": {"tested_on": "downy bromegrass (Bromus tectorum)", "settings": "for Bromegrass, Downy plant response rating (0 to 100 scale): 62 g ai/ha, 0 is no effect, 13 to 15 days", "summary_of_the_method": "(§1)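 Pre-em in loam/sand; post-em at 1–4 leaf (2–18 cm) in peat mix. Solvent + surfactant formulation. Greenhouse 13–15 d; visual % control vs untreated, 0–100.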"}, "[2]": {"tested_on": "giant foxtail (Setaria faberii)", "settings": "for Foxtail, Giant plant response rating (0 to 100 scale): 62 g ai/ha, 0 is no effect, 13 to 15 days", "summary_of_the_method": "as §1"}, "[3]": {"tested_on": "goosegrass (Eleusine indica)", "settings": "for Goosegrass plant response rating (0 to 100 scale): 62 g ai/ha, 0 is no effect, 13 to 15 days", "summary_of_the_method": "as §1"}, "[4]": {"tested_on": "green foxtail (Setaria viridis)", "settings": "for Foxtail, Green plant response rating (0 to 100 scale): 62 g ai/ha, 0 is no effect, 13 to 15 days", "summary_of_the_method": "as §1"}, "[5]": {"tested_on": "johnsongrass (Sorghum halepense)", "settings": "for Johnsongrass plant response rating (0 to 100 scale): 62 g ai/ha, 0 is no effect, 13 to 15 days", "summary_of_the_method": "as §1"}, "kochia (Kochia scoparia)": {"tested_on": "kochia (Kochia scoparia)", "settings": "for Kochia plant response rating (0 to 100 scale): 62 g ai/ha, 0 is no effect, 13 to 15 days", "summary_of_the_method": "as §1"}, "[6]": {"tested_on": "lambsquarters (Chenopodium album)", "settings": "for Lambsquarters plant response rating (0 to 100 scale): 62 g ai/ha, 0 is no effect, 13 to 15 days", "summary_of_the_method": "as §1"}, "[7]": {"tested_on": "large crabgrass (Digitaria sanguinalis)", "settings": "for Crabgrass, Large plant response rating (0 to 100 scale): 62 g ai/ha, 0 is no effect, 13 to 15 days", "summary_of_the_method": "as §1"}, "[8]": {"tested_on": "pigweed (Amaranthus retroflexus)", "settings": "for Pigweed plant response rating (0 to 100 scale): 62 g ai/ha, 0 is no effect, 13 to 15 days", "summary_of_the_method": "as §1"}, "[9]": {"tested_on": "velvetleaf (Abutilon theophrasti)", "settings": "for Velvetleaf plant response rating (0 to 100 scale): 62 g ai/ha, 0 is no effect, 13 to 15 days", "summary_of_the_method": "as §1"}, "[10]": {"tested_on": "wheat (Triticum aestivum)", "settings": "for Wheat plant response rating (0 to 100 scale): 62 g ai/ha, 0 is no effect, 13 to 15 days", "summary_of_the_method": "as §1"}, "[11]": {"tested_on": "woolly cupgrass (Eriochloa villosa)", "settings": "for Cupgrass, Woolly plant response rating (0 to 100 scale): 62 g ai/ha, 0 is no effect, 13 to 15 days", "summary_of_the_method": "as §1"}, "[12]": {"tested_on": "yellow nutsedge (Cyperus esculentus)", "settings": "for Nutsedge, Yellow plant response rating (0 to 100 scale): 62 g ai/ha, 0 is no effect, 13 to 15 days", "summary_of_the_method": "as §1"}, "[13]": {"settings": "31 g ai/ha, postemergence, scale 0 to 100, 0 is no effect, 100 is complete control"}, "[14]": {"settings": "postemergence, 100 is complete control"}, "[15]": {"settings": "Postemergence, 125 g ai/ha, visual rating after 13 to 15 days, scale 0 (no effect) to 100 (complete control)"}, "[16]": {"settings": "Postemergence, 250 g ai/ha, scale 0 to 100 (0 no effect, 100 complete control)"}}}
{"molecule": "CC(C)CC(=O)OC1=C(C(=O)c2cnc(-c3ccccc3)n(-c3ccccc3)c2=O)C(=O)CCC1", "note": "[Compound 83]", "values": [{"measurement": "Plant response rating, Bromegrass, Downy", "setting": "[1]; [13]", "value": 40}, {"measurement": "Bromegrass, Downy plant response rating (0 to 100 scale)", "setting": "[1]; [14]", "value": 45}, {"measurement": "Plant response rating, Bromegrass, Downy", "setting": "[1]; [15]", "value": 45}, {"measurement": "Plant response rating, Bromegrass, Downy", "setting": "[1]; [16]", "value": 60}, {"measurement": "Plant response rating, Foxtail, Giant", "setting": "[2]; [13]", "value": 80}, {"measurement": "Foxtail, Giant plant response rating (0 to 100 scale)", "setting": "[2]; [14]", "value": 95}, {"measurement": "Plant response rating, Foxtail, Giant", "setting": "[2]; [16]", "value": 98}, {"measurement": "Plant response rating, Goosegrass", "setting": "[3]; [13]", "value": 75}, {"measurement": "Goosegrass plant response rating (0 to 100 scale)", "setting": "[3]; [14]", "value": 80}, {"measurement": "Plant response rating, Goosegrass", "setting": "[3]; [16]", "value": 95}, {"measurement": "Plant response rating, Foxtail, Green", "setting": "[4]; [13]", "value": 90}, {"measurement": "Foxtail, Green plant response rating (0 to 100 scale)", "setting": "[4]; [14]", "value": 95}, {"measurement": "Plant response rating, Foxtail, Green", "setting": "[4]; [16]", "value": 98}, {"measurement": "Plant response rating, Johnsongrass", "setting": "[5]; [13]", "value": 95}, {"measurement": "Johnsongrass plant response rating (0 to 100 scale)", "setting": "[5]; [14]", "value": 100}, {"measurement": "Plant response rating, Johnsongrass", "setting": "[5]; [16]", "value": 100}, {"measurement": "Plant response rating, Kochia", "setting": "kochia (Kochia scoparia); [13]", "value": 65}, {"measurement": "Kochia plant response rating (0 to 100 scale)", "setting": "kochia (Kochia scoparia); [14]", "value": 75}, {"measurement": "Plant response rating, Kochia", "setting": "kochia (Kochia scoparia); [16]", "value": 95}, {"measurement": "Plant response rating, Lambsquarters", "setting": "[6]; [13]", "value": 95}, {"measurement": "Lambsquarters plant response rating (0 to 100 scale)", "setting": "[6]; [14]", "value": 98}, {"measurement": "Plant response rating, Lambsquarters", "setting": "[6]; [16]", "value": 100}, {"measurement": "Plant response rating, Crabgrass, Large", "setting": "[7]; [13]", "value": 85}, {"measurement": "Crabgrass, Large plant response rating (0 to 100 scale)", "setting": "[7]; [14]", "value": 85}, {"measurement": "Plant response rating, Crabgrass, Large", "setting": "[7]; [15]", "value": 95}, {"measurement": "Plant response rating, Crabgrass, Large", "setting": "[7]; [16]", "value": 98}, {"measurement": "Plant response rating, Pigweed", "setting": "[8]; [13]", "value": 80}, {"measurement": "Pigweed plant response rating (0 to 100 scale)", "setting": "[8]; [14]", "value": 90}, {"measurement": "Plant response rating, Pigweed", "setting": "[8]; [16]", "value": 100}, {"measurement": "Plant response rating, Velvetleaf", "setting": "[9]; [13]", "value": 85}, {"measurement": "Velvetleaf plant response rating (0 to 100 scale)", "setting": "[9]; [14]", "value": 90}, {"measurement": "Plant response rating, Velvetleaf", "setting": "[9]; [16]", "value": 100}, {"measurement": "Plant response rating, Wheat", "setting": "[10]; [13]", "value": 0}, {"measurement": "Wheat plant response rating (0 to 100 scale)", "setting": "[10]; [14]", "value": 0}, {"measurement": "Plant response rating, Wheat", "setting": "[10]; [16]", "value": 0}, {"measurement": "Plant response rating, Cupgrass, Woolly", "setting": "[11]; [13]", "value": 70}, {"measurement": "Cupgrass, Woolly plant response rating (0 to 100 scale)", "setting": "[11]; [14]", "value": 85}, {"measurement": "Plant response rating, Cupgrass, Woolly", "setting": "[11]; [15]", "value": 90}, {"measurement": "Plant response rating, Cupgrass, Woolly", "setting": "[11]; [16]", "value": 95}, {"measurement": "Plant response rating, Nutsedge, Yellow", "setting": "[12]; [13]", "value": 10}, {"measurement": "Nutsedge, Yellow plant response rating (0 to 100 scale)", "setting": "[12]; [14]", "value": 20}, {"measurement": "Plant response rating, Nutsedge, Yellow", "setting": "[12]; [16]", "value": 85}]}
{"molecule": "COCCn1c(-c2ccccc2)ncc(C(=O)C2=C(O)CCCC2=O)c1=O", "note": "[Compound 85]", "values": [{"measurement": "Plant response rating, Bromegrass, Downy", "setting": "[1]; [13]", "value": 0}, {"measurement": "Bromegrass, Downy plant response rating (0 to 100 scale)", "setting": "[1]; [14]", "value": 5}, {"measurement": "Plant response rating, Bromegrass, Downy", "setting": "[1]; [15]", "value": 25}, {"measurement": "Plant response rating, Bromegrass, Downy", "setting": "[1]; [16]", "value": 30}, {"measurement": "Plant response rating, Foxtail, Giant", "setting": "[2]; [13]", "value": 75}, {"measurement": "Foxtail, Giant plant response rating (0 to 100 scale)", "setting": "[2]; [14]", "value": 80}, {"measurement": "Plant response rating, Foxtail, Giant", "setting": "[2]; [16]", "value": 98}, {"measurement": "Plant response rating, Goosegrass", "setting": "[3]; [13]", "value": 70}, {"measurement": "Goosegrass plant response rating (0 to 100 scale)", "setting": "[3]; [14]", "value": 70}, {"measurement": "Plant response rating, Goosegrass", "setting": "[3]; [16]", "value": 85}, {"measurement": "Plant response rating, Foxtail, Green", "setting": "[4]; [13]", "value": 80}, {"measurement": "Foxtail, Green plant response rating (0 to 100 scale)", "setting": "[4]; [14]", "value": 95}, {"measurement": "Plant response rating, Foxtail, Green", "setting": "[4]; [16]", "value": 98}, {"measurement": "Plant response rating, Johnsongrass", "setting": "[5]; [13]", "value": 80}, {"measurement": "Johnsongrass plant response rating (0 to 100 scale)", "setting": "[5]; [14]", "value": 95}, {"measurement": "Plant response rating, Johnsongrass", "setting": "[5]; [16]", "value": 98}, {"measurement": "Plant response rating, Kochia", "setting": "kochia (Kochia scoparia); [13]", "value": 75}, {"measurement": "Kochia plant response rating (0 to 100 scale)", "setting": "kochia (Kochia scoparia); [14]", "value": 85}, {"measurement": "Plant response rating, Kochia", "setting": "kochia (Kochia scoparia); [16]", "value": 90}, {"measurement": "Plant response rating, Lambsquarters", "setting": "[6]; [13]", "value": 98}, {"measurement": "Lambsquarters plant response rating (0 to 100 scale)", "setting": "[6]; [14]", "value": 98}, {"measurement": "Plant response rating, Lambsquarters", "setting": "[6]; [16]", "value": 100}, {"measurement": "Plant response rating, Crabgrass, Large", "setting": "[7]; [13]", "value": 90}, {"measurement": "Crabgrass, Large plant response rating (0 to 100 scale)", "setting": "[7]; [14]", "value": 90}, {"measurement": "Plant response rating, Crabgrass, Large", "setting": "[7]; [15]", "value": 90}, {"measurement": "Plant response rating, Crabgrass, Large", "setting": "[7]; [16]", "value": 95}, {"measurement": "Plant response rating, Pigweed", "setting": "[8]; [13]", "value": 100}, {"measurement": "Pigweed plant response rating (0 to 100 scale)", "setting": "[8]; [14]", "value": 100}, {"measurement": "Plant response rating, Pigweed", "setting": "[8]; [16]", "value": 100}, {"measurement": "Plant response rating, Velvetleaf", "setting": "[9]; [13]", "value": 90}, {"measurement": "Velvetleaf plant response rating (0 to 100 scale)", "setting": "[9]; [14]", "value": 98}, {"measurement": "Plant response rating, Velvetleaf", "setting": "[9]; [16]", "value": 98}, {"measurement": "Plant response rating, Wheat", "setting": "[10]; [13]", "value": 0}, {"measurement": "Wheat plant response rating (0 to 100 scale)", "setting": "[10]; [14]", "value": 5}, {"measurement": "Plant response rating, Wheat", "setting": "[10]; [16]", "value": 35}, {"measurement": "Plant response rating, Cupgrass, Woolly", "setting": "[11]; [13]", "value": 75}, {"measurement": "Cupgrass, Woolly plant response rating (0 to 100 scale)", "setting": "[11]; [14]", "value": 85}, {"measurement": "Plant response rating, Cupgrass, Woolly", "setting": "[11]; [15]", "value": 90}, {"measurement": "Plant response rating, Cupgrass, Woolly", "setting": "[11]; [16]", "value": 90}, {"measurement": "Plant response rating, Nutsedge, Yellow", "setting": "[12]; [13]", "value": 75}, {"measurement": "Nutsedge, Yellow plant response rating (0 to 100 scale)", "setting": "[12]; [14]", "value": 85}, {"measurement": "Plant response rating, Nutsedge, Yellow", "setting": "[12]; [16]", "value": 85}]}
